Reference: PubChem BioAssay (NCI)
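Cells were grown in 96-well plates and exposed to each compound for 48 hours at five concentrations; endpoints were interpolated linearly between bracketing concentrations, or set to the highest concentration if not reached. GI50 = concentration required for 50% inhibition of growth. At the TGI there is no net growth.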

Columns and labels:
Assay in all cases: growth of human tumour cells (NCI), 48 h
786-0 renal = tested on: 786-0 renal
A498 renal = tested on: A498 renal
A549 NSCLC = tested on: A549 NSCLC
ACHN renal = tested on: ACHN renal
BT-549 breast = tested on: BT-549 breast
CAKI-1 renal = tested on: CAKI-1 renal
CCRF-CEM leukemia = tested on: CCRF-CEM leukemia
COLO 205 colon = tested on: COLO 205 colon
DU-145 prostate = tested on: DU-145 prostate
EKVX NSCLC = tested on: EKVX NSCLC
HCC-2998 colon = tested on: HCC-2998 colon
HCT-116 colon = tested on: HCT-116 colon
HCT-15 colon = tested on: HCT-15 colon
HL-60(TB) leukemia = tested on: HL-60(TB) leukemia
HOP-62 NSCLC = tested on: HOP-62 NSCLC
HOP-92 NSCLC = tested on: HOP-92 NSCLC
HS 578T breast = tested on: HS 578T breast
HT29 colon = tested on: HT29 colon
IGROV1 ovarian = tested on: IGROV1 ovarian
K-562 leukemia = tested on: K-562 leukemia
KM12 colon = tested on: KM12 colon
LOX IMVI melanoma = tested on: LOX IMVI melanoma
M14 melanoma = tested on: M14 melanoma
MALME-3M melanoma = tested on: MALME-3M melanoma
MCF7 breast = tested on: MCF7 breast
MDA-MB-231 breast = tested on: MDA-MB-231 breast
MDA-MB-435 = tested on: MDA-MB-435
MDA-MB-468 breast = tested on: MDA-MB-468 breast
MOLT-4 leukemia = tested on: MOLT-4 leukemia
NCI-H226 lung = tested on: NCI-H226 lung
NCI-H23 lung = tested on: NCI-H23 lung
NCI-H460 lung = tested on: NCI-H460 lung
NCI-H522 lung = tested on: NCI-H522 lung
NCI/ADR-RES ovarian = tested on: NCI/ADR-RES ovarian
OVCAR-3 ovarian = tested on: OVCAR-3 ovarian
OVCAR-4 ovarian = tested on: OVCAR-4 ovarian
OVCAR-5 ovarian = tested on: OVCAR-5 ovarian
OVCAR-8 ovarian = tested on: OVCAR-8 ovarian
PC-3 prostate = tested on: PC-3 prostate
RPMI-8226 leukemia = tested on: RPMI-8226 leukemia
RXF 393 renal = tested on: RXF 393 renal
SF-268 CNS = tested on: SF-268 CNS
SF-295 CNS = tested on: SF-295 CNS
SF-539 CNS = tested on: SF-539 CNS
SK-MEL-2 melanoma = tested on: SK-MEL-2 melanoma
SK-MEL-28 melanoma = tested on: SK-MEL-28 melanoma
SK-MEL-5 melanoma = tested on: SK-MEL-5 melanoma
SK-OV-3 ovarian = tested on: SK-OV-3 ovarian
SN12C renal = tested on: SN12C renal
SNB-19 CNS = tested on: SNB-19 CNS
SNB-75 CNS = tested on: SNB-75 CNS
SR leukemia = tested on: SR leukemia
SW-620 colon = tested on: SW-620 colon
T-47D breast = tested on: T-47D breast
TK-10 renal = tested on: TK-10 renal
U251 CNS = tested on: U251 CNS
UACC-257 melanoma = tested on: UACC-257 melanoma
UACC-62 melanoma = tested on: UACC-62 melanoma
UO-31 renal = tested on: UO-31 renal

Question: For `COC(=O)c1c(C(=O)OC)c2ccc3c4ccccc4ccc3n2c1C(=O)C(C)Br` (stereo not drawn), which GI50 (786-0 renal) is on record?
Answer: 21.1 µM

Question: What about the TGI (786-0 renal) of the same compound?
Answer: > 100 µM

Question: And the GI50 (A498 renal)?
Answer: 88.1 µM

Question: And the TGI (A498 renal)?
Answer: > 100 µM

Question: What about the GI50 (A549 NSCLC) of the same compound?
Answer: 42.2 µM

Question: What about the TGI (A549 NSCLC) of the same compound?
Answer: > 100 µM

Question: What about the GI50 (ACHN renal) of the same compound?
Answer: 22.2 µM

Question: What about the TGI (ACHN renal) of the same compound?
Answer: > 100 µM

Question: What about the GI50 (BT-549 breast) of the same compound?
Answer: 6.18 µM

Question: What about the TGI (BT-549 breast) of the same compound?
Answer: 40.2 µM

Question: And the GI50 (CAKI-1 renal)?
Answer: 21.2 µM

Question: And the TGI (CAKI-1 renal)?
Answer: > 100 µM

Question: And the GI50 (CCRF-CEM leukemia)?
Answer: 3.92 µM

Question: What about the TGI (CCRF-CEM leukemia) of the same compound?
Answer: > 100 µM

Question: What about the GI50 (COLO 205 colon) of the same compound?
Answer: 38.8 µM

Question: What about the TGI (COLO 205 colon) of the same compound?
Answer: > 100 µM

Question: And the GI50 (DU-145 prostate)?
Answer: > 100 µM

Question: And the TGI (DU-145 prostate)?
Answer: > 100 µM

Question: What about the GI50 (EKVX NSCLC) of the same compound?
Answer: 42.4 µM

Question: And the TGI (EKVX NSCLC)?
Answer: > 100 µM

Question: What about the GI50 (HCC-2998 colon) of the same compound?
Answer: 39.9 µM

Question: What about the TGI (HCC-2998 colon) of the same compound?
Answer: > 100 µM

Question: What about the GI50 (HCT-116 colon) of the same compound?
Answer: 11 µM

Question: What about the TGI (HCT-116 colon) of the same compound?
Answer: > 100 µM

Question: And the GI50 (HCT-15 colon)?
Answer: 6.17 µM

Question: What about the TGI (HCT-15 colon) of the same compound?
Answer: 30.3 µM

Question: And the GI50 (HL-60(TB) leukemia)?
Answer: 5.39 µM

Question: What about the TGI (HL-60(TB) leukemia) of the same compound?
Answer: > 100 µM

Question: And the GI50 (HOP-62 NSCLC)?
Answer: 33.1 µM

Question: And the TGI (HOP-62 NSCLC)?
Answer: > 100 µM

Question: And the GI50 (HOP-92 NSCLC)?
Answer: 15.2 µM

Question: What about the TGI (HOP-92 NSCLC) of the same compound?
Answer: > 100 µM

Question: And the GI50 (HS 578T breast)?
Answer: 18.8 µM

Question: What about the TGI (HS 578T breast) of the same compound?
Answer: 92.7 µM

Question: What about the GI50 (HT29 colon) of the same compound?
Answer: 20.6 µM

Question: What about the TGI (HT29 colon) of the same compound?
Answer: > 100 µM

Question: And the GI50 (IGROV1 ovarian)?
Answer: 33.2 µM

Question: What about the TGI (IGROV1 ovarian) of the same compound?
Answer: > 100 µM

Question: And the GI50 (K-562 leukemia)?
Answer: 6.48 µM

Question: And the TGI (K-562 leukemia)?
Answer: > 100 µM

Question: What about the GI50 (KM12 colon) of the same compound?
Answer: > 100 µM

Question: What about the TGI (KM12 colon) of the same compound?
Answer: > 100 µM

Question: And the GI50 (LOX IMVI melanoma)?
Answer: 4.35 µM

Question: What about the TGI (LOX IMVI melanoma) of the same compound?
Answer: 23.7 µM

Question: What about the GI50 (M14 melanoma) of the same compound?
Answer: 31.3 µM

Question: And the TGI (M14 melanoma)?
Answer: > 100 µM

Question: What about the GI50 (MALME-3M melanoma) of the same compound?
Answer: 6.1 µM

Question: And the TGI (MALME-3M melanoma)?
Answer: 43 µM

Question: What about the GI50 (MCF7 breast) of the same compound?
Answer: 4.58 µM

Question: And the TGI (MCF7 breast)?
Answer: > 100 µM

Question: What about the GI50 (MDA-MB-231 breast) of the same compound?
Answer: 4.72 µM

Question: What about the TGI (MDA-MB-231 breast) of the same compound?
Answer: 35.8 µM

Question: And the GI50 (MDA-MB-435)?
Answer: 16.1 µM

Question: And the TGI (MDA-MB-435)?
Answer: > 100 µM

Question: What about the GI50 (MDA-MB-468 breast) of the same compound?
Answer: 13.2 µM

Question: What about the TGI (MDA-MB-468 breast) of the same compound?
Answer: 52.4 µM

Question: And the GI50 (MOLT-4 leukemia)?
Answer: 3.3 µM

Question: What about the TGI (MOLT-4 leukemia) of the same compound?
Answer: > 100 µM

Question: And the GI50 (NCI-H226 lung)?
Answer: 25.6 µM

Question: And the TGI (NCI-H226 lung)?
Answer: > 100 µM

Question: What about the GI50 (NCI-H23 lung) of the same compound?
Answer: 12.9 µM

Question: And the TGI (NCI-H23 lung)?
Answer: > 100 µM

Question: And the GI50 (NCI-H460 lung)?
Answer: 17.8 µM

Question: And the TGI (NCI-H460 lung)?
Answer: > 100 µM

Question: And the GI50 (NCI-H522 lung)?
Answer: 3.07 µM

Question: And the TGI (NCI-H522 lung)?
Answer: 15.2 µM

Question: What about the GI50 (NCI/ADR-RES ovarian) of the same compound?
Answer: 17.7 µM

Question: What about the TGI (NCI/ADR-RES ovarian) of the same compound?
Answer: > 100 µM

Question: And the GI50 (OVCAR-3 ovarian)?
Answer: 16.9 µM

Question: What about the TGI (OVCAR-3 ovarian) of the same compound?
Answer: > 100 µM

Question: What about the GI50 (OVCAR-4 ovarian) of the same compound?
Answer: 25.6 µM

Question: And the TGI (OVCAR-4 ovarian)?
Answer: > 100 µM

Question: What about the GI50 (OVCAR-5 ovarian) of the same compound?
Answer: 22.5 µM

Question: What about the TGI (OVCAR-5 ovarian) of the same compound?
Answer: > 100 µM

Question: What about the GI50 (OVCAR-8 ovarian) of the same compound?
Answer: 14.9 µM

Question: And the TGI (OVCAR-8 ovarian)?
Answer: > 100 µM

Question: And the GI50 (PC-3 prostate)?
Answer: 17.8 µM

Question: And the TGI (PC-3 prostate)?
Answer: > 100 µM

Question: And the GI50 (RPMI-8226 leukemia)?
Answer: 7.43 µM

Question: What about the TGI (RPMI-8226 leukemia) of the same compound?
Answer: 48.1 µM

Question: What about the GI50 (RXF 393 renal) of the same compound?
Answer: 2.79 µM

Question: What about the TGI (RXF 393 renal) of the same compound?
Answer: 36.7 µM

Question: What about the GI50 (SF-268 CNS) of the same compound?
Answer: 34.4 µM

Question: And the TGI (SF-268 CNS)?
Answer: > 100 µM

Question: And the GI50 (SF-295 CNS)?
Answer: 28.3 µM

Question: What about the TGI (SF-295 CNS) of the same compound?
Answer: > 100 µM

Question: What about the GI50 (SF-539 CNS) of the same compound?
Answer: 10.9 µM

Question: And the TGI (SF-539 CNS)?
Answer: 25.6 µM

Question: What about the GI50 (SK-MEL-2 melanoma) of the same compound?
Answer: 17.9 µM

Question: What about the TGI (SK-MEL-2 melanoma) of the same compound?
Answer: 94.1 µM

Question: And the GI50 (SK-MEL-28 melanoma)?
Answer: 25.7 µM

Question: What about the TGI (SK-MEL-28 melanoma) of the same compound?
Answer: > 100 µM

Question: And the GI50 (SK-MEL-5 melanoma)?
Answer: 13 µM

Question: And the TGI (SK-MEL-5 melanoma)?
Answer: 46.8 µM

Question: And the GI50 (SK-OV-3 ovarian)?
Answer: > 100 µM

Question: And the TGI (SK-OV-3 ovarian)?
Answer: > 100 µM

Question: And the GI50 (SN12C renal)?
Answer: 17.2 µM

Question: What about the TGI (SN12C renal) of the same compound?
Answer: > 100 µM

Question: And the GI50 (SNB-19 CNS)?
Answer: 51.5 µM

Question: What about the TGI (SNB-19 CNS) of the same compound?
Answer: > 100 µM

Question: And the GI50 (SNB-75 CNS)?
Answer: 24.7 µM

Question: And the TGI (SNB-75 CNS)?
Answer: > 100 µM

Question: What about the GI50 (SR leukemia) of the same compound?
Answer: 5.87 µM

Question: What about the TGI (SR leukemia) of the same compound?
Answer: > 100 µM

Question: And the GI50 (SW-620 colon)?
Answer: 7.26 µM

Question: And the TGI (SW-620 colon)?
Answer: 58.3 µM

Question: What about the GI50 (T-47D breast) of the same compound?
Answer: 11.5 µM

Question: And the TGI (T-47D breast)?
Answer: > 100 µM

Question: What about the GI50 (TK-10 renal) of the same compound?
Answer: 76.3 µM

Question: And the TGI (TK-10 renal)?
Answer: > 100 µM

Question: What about the GI50 (U251 CNS) of the same compound?
Answer: 18.3 µM

Question: And the TGI (U251 CNS)?
Answer: > 100 µM

Question: And the GI50 (UACC-257 melanoma)?
Answer: 44.2 µM

Question: What about the TGI (UACC-257 melanoma) of the same compound?
Answer: > 100 µM

Question: And the GI50 (UACC-62 melanoma)?
Answer: 11.9 µM

Question: And the TGI (UACC-62 melanoma)?
Answer: > 100 µM

Question: What about the GI50 (UO-31 renal) of the same compound?
Answer: 24.9 µM

Question: What about the TGI (UO-31 renal) of the same compound?
Answer: > 100 µM
